The values that follow come from US11058700B2, “Macrocyclic lactones and uses thereof as modulators of purinergic receptors” (City of Hope, priority 2015, dated 2021).

Molecules are shown by their SMILES.

Usually IC50 stands for the concentration needed to halve the response being measured. Read a low IC50 as greater potency.

For experiment [1], the system named is murine and human TNBC cells. Briefly: HMGB1 and LDH Release. It counts as cell-based, mouse. The method, then: (§1) FIGS. 6A-6E. Ivermectin induces autophagy. FIG. 6A: Ivermectin induces autophagy in breast cancer cells. MDA-MB-231 GFL-LC3 cells were treated with different doses of Ivermectin for 24 h and formation of green fluorescent puncta was evaluated by confocal fluorescence microscopy. FIG. 6B: Western blot confirming the induction of autophagy in both murine and human breast cancer cells, as evidenced by LC3 lipidation and autophagic degradation of p62(SQSTM1). […] MDA-MB-231 cells (triplicates) were treated with different doses of Ivermectin for up to 24h and surface stained with antibody-specific for the human M6P receptor versus isotype control. Similarly, 4T1.2 and MB231 cells were treated with different doses of Ivermectin for 4-24 h, and were stained with an antibody specific for both human and mouse CRT versus isotype control. Mean fluorescent intensity (MFI) values and ratios versus isotype control were calculated after gating on live/membrane-intact cells. FIG. 6D: Ivermectin (32 μM) induces release of HMGB1 from murine and human TNBC cells (triplicates). […] Asterisk (*) indicates p<0.05 relative to untreated or Ivermectin alone controls, respectively.
HMGB1 and LDH Release. HMGB1 and LDH release were evaluated using an HMGB1 detection kit (IBL International, ST51011) and the CYTOTOX96® Non Radioactive Cytotoxicity Assay (Promega, G1780),following manufacturers' instructions.

The next experiment concerns breast cancer cells. Briefly: Induction of autophagy (GFP-LC3 puncta, Western blot LC3 / p62). It counts as cell-based, mouse, human. The protocol:
as §1
Western Blotting. […] Activation and cleavage of caspases was evaluated using antibodies specific for caspase-1 (NOVUS, NBP1-45433) and caspase-3 (Cell Signaling, 9665). […]
A general note: Immunoblotting shows a protein as a band on a membrane.

In experiment [2] the test system is breast (MCF7), prostate (DU-145), head and neck (A253), and ovarian (SKOV3) cancer cells. Briefly: Killing of resistant human cancer cell lines by Ivermectin and ATP. In kind it is cell-based. The note with it: Ivermectin 16 μM, exogenous ATP 3 mM. The protocol: FIGS. 5A-5E. CaMKII-independent P2X7-mediated killing. FIG. 5A: qPCR showing the extent of gene knockdown in 4T1.2 cells transfected with shRNA targeting the P2X7 receptor versus non-targeting (NT) control (left panel). […] One million wt, shRNA(NT) and shRNA(P2X7) 4T1.2 cells were plated and incubated for 48 h before evaluation of cell numbers and viability. FIG. 5B: P2X7 knockdown cells are more resistant to ATP and the ATP/IVM combo. 4T1.2 cells were treated for 24 h with 1-3 mM ATP, 6-10 μM Ivermectin, or combinations of ATP and Ivermectin. P2X7 knockdown suppresses the synergy between Ivermectin and high dose ATP, as shown by calculation of combination index (CI) values, see Table 2. FIG. 5C: P2X7 knockdown cells are resistant to ATP/Ivermectin induced membrane permeabilization (Asterisk (*) indicates p<0.05). […] FIG. 5E: Comparison of the protective effects of P2X7, CaMKII, and NADPH oxidases inhibition in short-term (4 h, 32 μM IVM) and long-term (24 h, 12 μM IVM) exposure of 4T1.2 cells to Ivermectin. Asterisk (*) indicates p<0.05 relative to Ivermectin alone controls.
(§2) Cell viability. […] Following treatment the plates were washed once with PBS and cell viability was measured using the acid phosphatase assay. […] Absorption at 405 nm was measured within 10 min using a multi-well plate reader. Mode of cell death and viability of cells in suspension was evaluated using flow cytometry. […]

The subject of experiment [3] is 4T1.2 cells. Briefly: Colony assay, 4T1.2 cells seeded at 100 cells/well, colonies counted after a week. In kind it is cell-based, mouse. The note with it: extended exposure time (Ivermectin during the entire duration of the assay). The method, then:
(§3) FIGS. 1A-1H. Ivermectin kills breast cancer cells through a mixed apoptotic and necrotic mechanism. FIG. 1A: Mouse (4T1.2) and human (MDA-MB-231) TNBC cells manifest similar sensitivity to Ivermectin. Viability of cells treated with various doses of Ivermectin for 24 h. FIG. 1B: Extended exposure time reduces IC50 values to as low as 2 μM. 4T1.2 cells were seeded at 100 cells/well and individual colonies were counted after a week. Cancer cells were exposed to Ivermectin during the initial 24 h or during the entire duration of the assay. FIG. 1C: MDA-MB-231 breast cancer cells manifest higher sensitivity to Ivermectin compared to normal non-transformed human foreskin fibroblasts (HFFs). FIG. 1D: Flow cytometry analysis showing that cell death proceeds through two distinct pathways: a directly necrotic 7AAD-single positive or Annexin V/PS-single positive apoptotic pathway. FIG. 1E: Kinetics of necrotic versus apoptotic killing of 4T1.2 breast cancer cells. FIG. 1F: Ivermectin-induced cell death can be reversed by inhibition of various controlled cell death pathways. 4T1.2 cells were treated for 4 h with 32 μM Ivermectin in the presence of μM concentrations of Z-vad-fmk, Necrostatin-1, Digoxin, or VX-765, as indicated. FIG. 1G: Activation of Caspase-1, Caspase-3 and cleavage of PARP in 4T1.2 and MDA-MB-231 cells treated with 32 μM for 4 h. […]

For experiment [4], the system named is 4T1.2 cells. Briefly: Cytosolic Ca2+ flux. It counts as cell-based, mouse. The method, then: Cytosolic Ca^2+ flux. Cancer cells in suspension were washed with PBS and loaded with 1 μM Rhod-3 AM (Life Technologies, R10145) for 30 min at room temperature in the dark. Cells were washed with PBS couple of times and treated with various doses of Ivermectin in R10 medium. Cells were incubated for 15 min to 4 h in 5 ml FACS tubes at 37° C. and 5% CO2, followed by immediate flow cytometry analysis of fluorescence in the PE channel. Chelating of extracellular and intracellular Ca^2+ was performed by supplementing the Ivermectin treatment medium with 1 mM EDTA (USB Corp, 15694) or by adding 20 μM BAPTA-AM (Tocris, 2787) to the Rhod-3 AM loading solution, respectively.

Experiment [5] deals with 4T1.2 breast cancer cells. Briefly: Flow cytometry of mode of cell death (Annexin V / 7AAD). The note with it: Ivermectin-treated breast cancer cells. In kind it is cell-based, mouse. The protocol: as §3, with “pathways.” for “pathways. 4T1.2 cells were treated for 4 h with 32 μM Ivermectin in the presence of μM concentrations of Z-vad-fmk, Necrostatin-1, Digoxin, or VX-765, as indicated. FIG. 1G: Activation of Caspase-1, Caspase-3 and cleavage of PARP in 4T1.2 and MDA-MB-231 cells treated with 32 μM for 4 h.”
as §2

With `CC[C@H](C)[C@H]1O[C@]2(CC[C@@H]1C)C[C@@H]1C[C@@H](C/C=C(\C)[C@@H](O[C@H]3C[C@H](OC)[C@@H](O[C@H]4C[C@H](OC)[C@@H](O)[C@H](C)O4)[C@H](C)O3)[C@@H](C)/C=C/C=C3\CO[C@@H]4[C@H](O)C(C)=C[C@@H](C(=O)O1)[C@]34O)O2` [Ivermectin], the HMGB1 release result in experiment [1] (32 μM) was “potent inducer of HMGB1 release”. Besides, in experiment [1] (normalized to maximum release (lysis)), the LDH release entry is given as “induces release of cytosolic LDH”. Also, in the experiment on breast cancer cells, the induction of autophagy result is recorded as “potent inducer of autophagy”. Also, the “killing by combination of Ivermectin and ATP” value in experiment [2] is recorded as “synergistically kill”. For the same compound, the IC50 in the experiment on 4T1.2 cells [3] was at least 2000 nM. In addition, the “cytosolic Ca2+” value with 4T1.2 cells [4] is “sustained increases in cytosolic Ca^2+”. Besides, the “dying cancer cells directly necrotic (7AAD-positive)” value in experiment [5] is “More than 90%”.
